Patent EP0558960A1, “Medicament for the prophylaxis and treatment of the neurologic and psychiatric disorders caused by alcohol abuse, which contains thiamine, folic acid and cobalamine” (priority 1992, dated 1993)

How the values were obtained:
[1] = Thiamine levels in plasma and erythrocytes after oral administration of the medicament with Benfotiamin; type: in vivo; conditions: comparator not printed in b22 (Thiaminhydrochlorid)
[2] = Availability and passage of the blood-brain barrier, Benfotiamin compared with Thiaminhydrochlorid; type: in vivo
[3] = in contrast to Thiaminhydrochlorid

For `CC(=C(CCOP(=O)(O)O)SC(=O)c1ccccc1)N(C=O)Cc1cnc(C)nc1N` [Benfotiamin], the “höhere Anstiege von Thiamin und Thiamindiphosphat-coenzymen in den Erythrozyten” value [1] was “ca. 130 -fach”, the “höhere Plasmaspiegel an Thiamin” value [1] was 10 -fach and the Verfügbarkeit ([2]; compared with Thiaminhydrochlorid) was “besser verfügbar als Thiaminhydrochlorid”. For the same molecule, the Blut-Hirn-Schranke [2, 3] was “passiert” and the Liquor cerebrospinalis [2, 3] was “anreichert”.
